Source: publication PMC12704579, “New Anticancer 4‐Aryldihydropyrimidinone‐5‐Carboxylates Targeting Hsp90” (Chemical Biology & Drug Design, 2025)
“And” between values parts separate entries of the source, which are not always exact repeats. Equal values may be shown once.

Legend:
MDA-MB-231 cells = assay: CellTiter-Blue cell viability assay, MDA-MB-231 (24 h); assay type: cell-based, human; conditions: for GI50: 24 h incubation time; for viability at 10 µM / % Viability (MDA-MB-231, 10 μM): CellTiter-Blue, 24 h incubation, 10 μM test compound, standardised to DMSO control
Procedure: (§1) Human Embryonic Kidney cells (HEK‐293) and human breast cancer cells (MCF‐7, MDA‐MB‐231 and HCC1954) were cultured in complete growth media: […] 1X (Gibco); 10% v/v Fetal Bovine Serum (FBS, Sigma Dorset UK) and L‐glutamine (2 mM, Invitrogen). SW‐480‐WT cells were maintained in selective media made up of Dulbecco's Modified Eagle Medium (Gibco), enriched with […] of Geneticin Selective Antibiotic (G418 Sulfate; Gibco, Thermo Fisher). Cells were incubated at a 5% CO2 atmosphere at 37°C.
(§2) Cells were cultured in 96‐well plates in 90 μL at a seeding density of 1 × 10^6 cells per well. Compound samples were prepared at different concentrations (1 mM, 100 μM, 10 μM, 1 μM, 100 nM, 10 nM) and 10 μL of each concentration was seeded in each well. Two different negative controls were used: DMSO 0.01% and 0.001%. Paclitaxel (30% w/v) was used as a positive control. Cells were treated for 24 h after which 20 μL of CellTitre‐Blue reagent (Promega, Southampton, UK) was added and incubated for 2 h at 37°C in 5% CO2. Fluorescence was measured at 560/590 nm on a Fluorostar Optima plate reader (BMG Labtech, Bucks, UK). Assay end points were normalised to 0% (DMSO only) and fitted to a semilog plot using at least n = 3 technical replicates (n = 6 for DMSO control and paclitaxel control) and N = 3 independent replicates. The curve fit was performed using the GraphPad Prism software and the standard Hill equation.
(§3) In view of previous reports on Hsp90 inhibitors and their effects on cancer cell viability (Eachkoti et al. [2014]) and clonogenicity (Kinzel et al. [2016]), new compounds were tested for inhibition of cell viability within both non‐tumourigenic (HEK‐293) and breast cancer cell lines (MDA‐MB‐231) at a fixed concentration of 10 μM. The well‐established CellTiter‐Blue endpoint assay was used to assess cell viability. New compounds were also assessed in a colony forming assay (MCF‐7 breast cancer cell line), used as an efficacy screening to provide an indication of the inhibition of clonogenicity for these small molecules (Table 1).

HEK-293 cells = assay: CellTiter-Blue cell viability assay, HEK-293 (24 h); assay type: cell-based, human; conditions: Homo sapiens, HEK293; 24 h incubation time
Procedure: as §1, §2, §3

[1] = as above; assay type: cell-based, human; conditions: human, HEK-293 cells, CellTiter-Blue, 24 h incubation, 10 μM test compound, standardised to DMSO control
Procedure: as §1, §2, §3

[2] = target: T1, Recombinant human Hsp90 alpha protein (Homo sapiens, UniProt P07900); assay: Transcreener ADP FP Hsp90 ATPase assay; assay type: biochemical; conditions: Recombinant human HSP90, 100 μM ATP; read-out: ATPase assay on rh-Hsp90 IC50
T1 construct: human full‐length protein, expressed in Escherichia coli; His tag (C); purchased Abcam ab80369; host or cells: Escherichia coli
Procedure: Transcreener ADP (cat. no. 3004‐1K) and ADP2 (cat. no. 3010‐1K) FP assay kits were obtained from Bellbrook Laboratories. Recombinant human Hsp90 alpha protein (active), human full‐length protein, expressed in Escherichia coli with > 90% purity and C‐terminus His tag, was purchased from Abcam (ab80369). All FP assays were carried out in black, 384‐well, low‐volume, polystyrene nonbinding microplates from Corning Life Sciences. All basic buffer components were obtained from Sigma‐Aldrich Chemical Co. 17‐AAG (Figure 1) was obtained from Abcam. Using the Transcreener ADP FP kit, the conditions for the recombinant human Hsp90 ATPase reaction were 50 mM HEPES (pH 7.4), 20 mM KCl, 2 mM EGTA, 4 mM MgCl2, and 0.01% Brij‐35 in a 10‐μL total assay volume. The final assay concentration of ATP was 100 μM for Hsp90. Due to the relatively low level of ATPase activity compared with other enzymes, the plate was incubated at 37°C and run over 1, 2 and 3 h time points. The reaction was stopped, and the ADP was detected by adding 10 μL of 50 mM HEPES (pH 7.4), 400 mM NaCl, 20 mM EDTA, 0.01% Brij35, 75 μg/mL anti‐ADP monoclonal antibody, and 4 nM ADP far red tracer. The plate was sealed, centrifuged at 600 g for 1 min, and left at room temperature for 1 h. FP readings for the Hsp90 ATPase Transcreener assays were performed on a Clariostar plate reader ([…]). A blank mP signal composed of protein, antibody, labelled ADP, but no ATP substrate gave similar mP values to those seen in the no‐protein controls. The upper limit of the assay window was defined by a no‐protein control, and the mP in the presence of heat shock protein was subtracted from this control to generate a change in polarisation (ΔmP), which was plotted on the activity graphs. Therefore, the data take into account the spontaneous hydrolysis of ATP. Each value is the mean of triplicate determinations with standard deviations (SD) shown. IC50 values were calculated using GraphPad Prism software with the nonlinear regression curve fitted to the log (inhibitor concentration) against the raw mP values on the linear portion of the standard curve.

MCF-7 cells = assay: Colony forming assay, MCF-7; assay type: cell-based, human; conditions: for IC50: Homo sapiens, MCF7, 168 h, 7 days; for % Clonogenicity (MCF-7, 10 μM): percentage of survival colonies, 7-day incubation, standardised to DMSO control
Procedure: as §1
Cells were seeded in a 12‐well plate at 400 cells per well. One hour after the seeding of the cells, compounds (1 mM, 100 μM, 10 μM, 1 μM, 100 nM, 10 nM) or vehicle were added into the wells in triplicate (DMSO vehicle 0.1% and 1%). After 7 days, colonies were stained with 350 μL of crystal violet solution, incubated for 30 min at room temperature, then wells were washed in water and dried. At least the best 3 independent experiments out of 5 independent repeats were used to perform the statistical analysis of the results. Colonies were counted by GelCount Colony Counter (Oxford Optronix Ltd.) using the GelCount 1.1.8.0 software. Assay end points were normalised to 0% (DMSO only) and fitted to a semi‐log plot using at least n = 3 technical replicates (n = 6 for DMSO control and N = 3 independent replicates). The curve fit was performed using GraphPad Prism.
as §3

| Compound | GI50 (MDA-MB-231 cells; Homo sapiens, MDA-MB-231, 24 h) [µM] | viability at 10 µM (MDA-MB-231 cells; Homo sapiens, MDA-MB-231, 24 h) [%] | GI50 (HEK-293 cells) [µM] | viability at 24 h, 10 µM [1] [%] | IC50 [2] [µM] | IC50 (MCF-7 cells) [µM] | % Clonogenicity (MCF-7, 10 μM) (MCF-7 cells) | % Viability (MDA-MB-231, 10 μM) (MDA-MB-231 cells) [%] | GI50 (MDA-MB-231 cells) [µM] |
| --- | --- | --- | --- | --- | --- | --- | --- | --- | --- |
| COc1ccc(C2NC(=O)NC(C)=C2C(=O)OCc2ccccc2)c(F)c1 (centres unmarked) [Compound 5a, Benzyl 4‐(2‐Fluoro‐4‐Methoxyphenyl)‐6‐Methyl‐2‐Oxo‐1,2,3,4‐Tetrahydropyrimidine‐5‐Carboxylate] | 86.2 | 91.33 ± 0.64 | 71.5 | 90.6 ± 3.35 | 5.36 | 5.03 | 71.87 ± 4.77% | – | – |
| COc1ccc(C2NC(=O)NC(C)=C2C(=O)OCc2ccc(OC)c(OC)c2)c(F)c1 (centres unmarked) [Compound 5b, 3,4‐Dimethoxybenzyl 4‐(2‐Fluoro‐4‐Methoxyphenyl)‐6‐Methyl‐2‐Oxo‐1,2,3,4‐Tetrahydropyrimidine‐5‐Carboxylate] | 72.1 | 89.7 ± 1.37 | 44.9 | 99.9 ± 1.5 | 13.1 | 0.68 | 71.39 ± 2.94% | – | – |
| COc1ccc(COC(=O)C2=C(C)NC(=O)NC2c2ccc(Cl)cc2)cc1OC (centres unmarked) [Compound 5c, 3,4‐Dimethoxybenzyl‐4‐(4‐Chlorophenyl)‐6‐Methyl‐2‐Oxo‐1,2,3,4‐Tetrahydropyrimidine‐5‐Carboxylate] | 22.7 | < 80 | 12.6 | 99.4 ± 3.16 | 4.28 | 2.46 | 64.29 ± 3.69% | 73.55 ± 3.50 | – |
| CC1=C(C(=O)OCc2ccccc2)C(c2ccc(OC(F)(F)F)cc2F)NC(=O)N1 (centres unmarked) [Compound 5f, Benzyl 4‐(2‐Fluoro‐4‐(Trifluoromethoxy)phenyl)‐6‐Methyl‐2‐Oxo‐1,2,3,4‐Tetrahydropyrimidine‐5‐Carboxylate] | 98.9 | 85.7 ± 2.65 | 16.4 | 95.1 ± 3.82 | 13.7 | 2.29 | 72.41 ± 3.21% | – | – |
| COc1ccc(COC(=O)C2=C(C)NC(=O)NC2c2cccc(Cl)c2)cc1OC (centres unmarked) [Compound 5g, 3,4‐Dimethoxybenzyl 4‐(3‐Chlorophenyl)‐6‐Methyl‐2‐Oxo‐1,2,3,4‐Tetrahydropyrimidine‐5‐Carboxylate] | 19.3 | < 80 | 39.1 | 96.7 ± 3.77 | 32.6 | 0.83 | 50.04 ± 2.3% | 72.16 ± 7.20 | – |
| COc1cccc(COC(=O)C2=C(C)NC(=O)NC2c2ccc(Cl)cc2)c1 (centres unmarked) [Compound 5h, 3‐Methoxybenzyl 4‐(4‐Chlorophenyl)‐6‐Methyl‐2‐Oxo‐1,2,3,4‐Tetrahydropyrimidine‐5‐Carboxylate] | 23.7 | 88 ± 3.1 | 12.3 | 81 ± 2.36 | 6.47 | 9.08 | 42.34 ± 4.80% | – | – |
| COc1ccc(COC(=O)C2=C(C)NC(=O)NC2c2ccc(Cl)cc2)cc1 (centres unmarked) [Compound 5i, 4‐Methoxybenzyl 4‐(4‐Chlorophenyl)‐6‐Methyl‐2‐Oxo‐1,2,3,4‐Tetrahydropyrimidine‐5‐Carboxylate] | 40 | 83.26 ± 0.69 | 98.5 | 94.3 ± 2.95 | 9.59 | 0.56 | 8.39% and 8.39 ± 2.84% | – | 40 |
| COc1ccc(COC(=O)C2=C(C)NC(=O)NC2c2ccccc2Cl)cc1OC (centres unmarked) [Compound 5j, 3,4‐Dimethoxybenzyl 4‐(2‐Chlorophenyl)‐6‐Methyl‐2‐Oxo‐1,2,3,4‐Tetrahydropyrimidine‐5‐Carboxylate] | 65.7 | < 80 | 58 | 93 ± 2.59 | 32.5 | 3.49 | 58.18 ± 4.42% | 76.50 ± 4.28 | – |
| COc1ccc(C2NC(=O)NC(C)=C2C(=O)OCc2ccc3c(c2)OCO3)cc1 (centres unmarked) [Compound 5k, Benzo[d] [1,3] Dioxol‐5‐ylmethyl 4‐(4‐Methoxyphenyl)‐6‐Methyl‐2‐Oxo‐1,2,3,4‐Tetrahydropyrimidine‐5‐Carboxylate] | 77.2 | 98.7 ± 2.6 | 63 | 98.6 ± 1.31 | 20.2 | 2.46 | 99.85 ± 3.27% | – | – |
| CC1=C(C(=O)OCc2ccccc2)C(c2ccc(F)cc2)NC(=O)N1 (centres unmarked) [Compound 5l, Benzyl 4‐(4‐Fluorophenyl)‐6‐Methyl‐2‐Oxo‐1,2,3,4‐Tetrahydropyrimidine‐5‐Carboxylate] | 86.6 | 100 ± 2.96 | 52.9 | 98 ± 1.89 | 22.9 | 0.89 | 82.62 ± 2.93% | – | – |
